Laboratory results taken from patent publication US20120238599A1, “HETEROCYCLIC COMPOUNDS AS MEK INHIBITORS” (CHEMIZON, A DIVISION OF OPTOMAGIC CO., LTD., priority 2011, published 2012).

Assays:
[1] = molecular target: T1, Mek1 (Homo sapiens, UniProt Q02750); assay: Mek1 kinase assay (LANCE), enzymatic activity; format: biochemical; conditions: Mek1 0.25 nM, 50 μM ATP, 2 nM inactive Erk1, 90 min at 23° C.
T1 construct: purchased Millipore
Procedure: A Mek1 kinase assay (LANCE, PerkinElmer) was developed for supporting compound profiling and lead optimization. […] Then the phosphorylated Erk1 was able to phosphorylate ULight™-MBP peptide (PerkinElmer). The phosphorylated peptide was detected by Europium-anti-phospho-MBP (PerkinElmer). […] After quenching the reaction, 2 nM Europium-anti-phospho-MBP was added to the reaction mixture and incubated for 60 min, followed by a detection using EnVision. The IC50 values were derived through a curve fitting using GraFit.

[2] = system: MEK; assay: Cell-based mechanism assay in A375 cell line, MEK inhibition detected by reduced ERK phosphorylation (AlphaScreen SureFire); conditions: A375 cell line (melanoma), phospho-ERK levels, compounds incubated 1 hour at 37° C.
Procedure: To investigate whether a compound is able to inhibit the activity of MEK in cells, a mechanism-based assay using A375 cell line (melanoma) was developed. In this assay (AlphaScreen, PerkinElmer), inhibition of MEK was detected by reduced ERK phosphorylation. A375 cells were cultured in a tissue culture flask to 80% confluence in DMEM plus 10% fetal bovine serum. Cells were collected and plated onto 96 well culture plates at 3×10^4 cells/well. Plates were incubated overnight at 37° C. with 5% CO2 to allow cells to adhere. Compounds were added to the plates and incubated at 37° C. for 1 hour. After removing the medium, 100 μl of cell lysis buffer were added to each well and 4 μl of cell lysate were transferred into a 384 well white Proxiplate (PerkinElmer). The phospho-ERK levels were determined by following the standard protocol supplied with the PerkinElmer SureFire Phospho-ERK 1/2 Assay Kit®. Plates were read out by EnVision (PerkinElmer). The data were analyzed using GraphPad Prism.

T1 sequence (Q02750 whole entry, species assumed): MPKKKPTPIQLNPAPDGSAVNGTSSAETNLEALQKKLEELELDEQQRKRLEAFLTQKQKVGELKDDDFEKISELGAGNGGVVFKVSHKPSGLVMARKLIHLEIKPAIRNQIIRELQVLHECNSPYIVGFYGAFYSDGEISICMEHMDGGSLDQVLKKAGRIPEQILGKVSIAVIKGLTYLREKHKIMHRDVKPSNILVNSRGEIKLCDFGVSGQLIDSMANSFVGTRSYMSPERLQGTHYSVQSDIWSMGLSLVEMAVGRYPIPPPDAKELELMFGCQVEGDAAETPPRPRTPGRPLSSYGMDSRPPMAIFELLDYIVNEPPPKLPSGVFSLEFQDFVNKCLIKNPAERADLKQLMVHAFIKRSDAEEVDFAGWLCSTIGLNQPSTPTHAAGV

## COc1c(C(=O)NOCCO)c(Nc2ccc(I)cc2F)n(C)c(=O)c1C
[1]
  IC50: < 100 nM
[2]
  IC50: < 100 nM

## Cn1c(Nc2ccc(I)cc2F)c(C(=O)NOCCO)c2occc2c1=O
[1]
  IC50: < 100 nM
[2]
  IC50: < 100 nM

## Cn1c(Nc2ccc(I)cc2F)c(C(=O)NOC[C@H](O)CO)c2occc2c1=O
[1]
  IC50: < 100 nM
[2]
  IC50: < 100 nM

## Cn1c(Nc2ccc(I)cc2Cl)c(C(=O)NOCCO)c2occc2c1=O
[1]
  IC50: < 100 nM
[2]
  IC50: < 100 nM

## Cn1c(Nc2ccc(I)cc2F)c(C(=O)NCCCO)c2occc2c1=O
[1]
  IC50: < 5000 nM
[2]
  IC50: < 100 nM

## Cn1c(Nc2ccc(I)cc2F)c(C(=O)NOCCO)c2sccc2c1=O
[1]
  IC50: < 1000 nM
[2]
  IC50: < 100 nM

## Cc1nc2c(=O)n(C)c(Nc3ccc(I)cc3F)c(C(=O)NOCCO)c2o1
[1]
  IC50: < 1000 nM
[2]
  IC50: < 100 nM

## Cc1noc2c(C(=O)NOCCO)c(Nc3ccc(I)cc3F)n(C)c(=O)c12
[1]
  IC50: < 5000 nM
[2]
  IC50: < 100 nM

## Cc1coc2c(C(=O)NOCCO)c(Nc3ccc(I)cc3F)n(C)c(=O)c12
[1]
  IC50: < 1000 nM
[2]
  IC50: < 100 nM

## Cn1c(Nc2ccc(I)cc2F)c(C(=O)NOCCO)c2scnc2c1=O
[1]
  IC50: < 5000 nM
[2]
  IC50: < 5000 nM
